Measurements: ChEMBL document CHEMBL1141486, “Synthesis and biological evaluation of novel 1,3,5-triazine derivatives as antimicrobial agents” (Bioorg Med Chem Lett, 2008)
Active and inactive are the calls of the source. No cut-off for these calls is given here.

Legend:
Bacillus subtilis = assay: Antibacterial activity against Bacillus subtilis […] by microdilution method; type: functional, organism-based
Bacillus anthracis = assay: Antibacterial activity against Bacillus anthracis by microdilution method; type: functional, organism-based
Escherichia coli = assay: Antibacterial activity against ampicillin and streptomycin-resistant Escherichia coli D31 by microdilution method; type: functional, organism-based
Staphylococcus aureus = assay: Antibacterial activity against multi-drug resistant Staphylococcus aureus ATCC BAA44 by microdilution method; type: functional, organism-based
Acinetobacter baumannii = assay: Antibacterial activity against Acinetobacter baumannii ATCC BAA747 by microdilution method; type: functional, organism-based
[1] = Hemolytic activity in red blood cells at 100 uM; type: ADME, cell-based, Erythrocyte; settings: read-out: Activity
[2] = Hemolytic activity in red blood cells; type: ADME, cell-based, Erythrocyte; settings: read-out: HD50 (the source's name)
[3] = Effect on disruption of membrane integrity using […]-2-oleoyl-sn-glycero-3-[phospho-rac-(1-glycerol)] lipid vesicle at 50 uM by calcein dye leakage assay; type: functional
[4] = Effect on disruption of membrane integrity using […]-2-oleoyl-sn-glycero-3-[phospho-rac-(1-glycerol)] lipid vesicle at 90 uM by calcein dye leakage assay; type: functional
[5] = Effect on disruption of membrane integrity using […]-2-oleoyl-sn-glycero-3-[phospho-rac-(1-glycerol)] lipid vesicle at 70 uM by calcein dye leakage assay; type: functional

## CCN(CC)CCCNc1nc(NCc2ccccc2)nc(NC23CC4CC(CC(C4)C2)C3)n1
Bacillus subtilis
  IC50: 10.6 µM

## CCN(CC)CCCNc1nc(NCCCc2ccccc2)nc(NC23CC4CC(CC(C4)C2)C3)n1
Bacillus subtilis
  IC50: 3.7 µM

## CN1CCCC1CCNc1nc(NC2CCCCCC2)nc(NC23CC4CC(CC(C4)C2)C3)n1 (centres undefined)
Bacillus subtilis
  IC50: 5.9 µM

## CCCCN(CCCC)CCCNc1nc(NC2CCCCCC2)nc(NC23CC4CC(CC(C4)C2)C3)n1
Bacillus anthracis
  IC50: 41 µM
Escherichia coli
  IC50: 620 µM
Staphylococcus aureus
  IC50: 68 µM
Acinetobacter baumannii
  IC50: 53 µM
[1]
  hemolysis at 100 µM: < 10%
[2]
  HC50: > 3.5 mM
Bacillus subtilis
  IC50: 2.5 µM

## CCCCN(CCCC)CCCNc1nc(NC23CC4CC(CC(C4)C2)C3)nc(N(CCC)CC2CC2)n1
Bacillus subtilis
  IC50: 5 µM

## CCCCN(CCCC)CCCNc1nc(NCCCN2CCCC(C)C2)nc(NC23CC4CC(CC(C4)C2)C3)n1 (centres undefined)
[1]
  hemolysis at 100 µM: < 10%

## NCCCNc1nc(NC2CCCCCC2)nc(NC23CC4CC(CC(C4)C2)C3)n1
Bacillus subtilis
  IC50: 4.7 µM

## CCCCN(CCCC)CCCNc1nc(NC2CC2)nc(NC23CC4CC(CC(C4)C2)C3)n1
Bacillus subtilis
  IC50: 16.4 µM

## CCN(CC)CCCNc1nc(NCCc2ccccc2)nc(NC23CC4CC(CC(C4)C2)C3)n1
Bacillus anthracis
  IC50: 21 µM
Escherichia coli
  IC50: 200 µM
Staphylococcus aureus
  IC50: 17 µM
Acinetobacter baumannii
  IC50: 22 µM
[3]
  Activity: 100%
[2]
  HC50: > 3.5 mM
Bacillus subtilis
  IC50: 2.7 µM

## CCCCN(CCCC)CCCNc1nc(NC2CCCCCCCCCCC2)nc(NC23CC4CC(CC(C4)C2)C3)n1
Bacillus subtilis
  IC50: 15.9 µM

## CCCCN(CCCC)CCCNc1nc(NCCCN(CC)CC)nc(NC23CC4CC(CC(C4)C2)C3)n1
[1]
  hemolysis at 100 µM: < 10%

## NCCNc1nc(NC2CCCCCC2)nc(NC23CC4CC(CC(C4)C2)C3)n1
Bacillus subtilis
  IC50: 5.9 µM

## CCCCN(CCCC)CCCNc1nc(NCC2CCCCC2)nc(NC23CC4CC(CC(C4)C2)C3)n1
Bacillus subtilis
  IC50: 5.5 µM

## CN(C)CCCNc1nc(NC2CCCCCC2)nc(NC23CC4CC(CC(C4)C2)C3)n1
Bacillus subtilis
  IC50: 5.7 µM

## CCN(CC)CCCNc1nc(NCc2ccc3c(c2)OCO3)nc(NC23CC4CC(CC(C4)C2)C3)n1
Bacillus subtilis
  IC50: 3.5 µM

## CCCCN(CCCC)CCCNc1nc(NC2CCC2)nc(NC23CC4CC(CC(C4)C2)C3)n1
Bacillus subtilis
  IC50: 7.9 µM

## CCN(CC)CCCNc1nc(NC2CCCCCC2)nc(NC23CC4CC(CC(C4)C2)C3)n1
[1]
  hemolysis at 100 µM: < 10%

## C[N+](C)(C)CCNc1nc(NC2CCCCCC2)nc(NC23CC4CC(CC(C4)C2)C3)n1
Bacillus subtilis
  IC50: 5.3 µM

## CCCCN(CCCC)CCCNc1nc(NCCCN(CCCC)CCCC)nc(NC23CC4CC(CC(C4)C2)C3)n1
[1]
  hemolysis at 100 µM: < 10%

## CCCCN(CCCC)CCCNc1nc(NC23CC4CC(CC(C4)C2)C3)nc(NC23CC4CC(CC(C4)C2)C3)n1
Bacillus subtilis
  IC50: 39 µM

## CCCCN(CCCC)CCCNc1nc(NC2CCCCC2)nc(NC23CC4CC(CC(C4)C2)C3)n1
[1]
  hemolysis at 100 µM: < 10%

## CN(C)c1nc(NC2CCCCCC2)nc(NC23CC4CC(CC(C4)C2)C3)n1
Bacillus subtilis
  IC50: > 40 µM
[4]
  Activity: inactive

## CCCCN(CCCC)CCCNc1nc(NC2CCCC2)nc(NC23CC4CC(CC(C4)C2)C3)n1
Bacillus subtilis
  IC50: 4.6 µM

## CCN(CC)CCCNc1nc(NCCc2ccc(OC)cc2)nc(NC23CC4CC(CC(C4)C2)C3)n1
[1]
  hemolysis at 100 µM: < 10%

## CC1(C)S[C@@H]2[C@H](NC(=O)[C@H](N)c3ccccc3)C(=O)N2[C@H]1C(=O)O
[5]
  Activity: inactive

## CCCCN(CCCC)CCCNc1nc(NC23CC4CC(CC(C4)C2)C3)nc(N(CCCC)CCCC)n1
Bacillus subtilis
  IC50: 4.4 µM

## CCCCN(CCCC)CCCNc1nc(NC2CCCCCCC2)nc(NC23CC4CC(CC(C4)C2)C3)n1
Bacillus anthracis
  IC50: 86 µM
Escherichia coli
  IC50: 550 µM
Staphylococcus aureus
  IC50: 70 µM
Acinetobacter baumannii
  IC50: 84 µM
[2]
  HC50: > 3.5 mM
Bacillus subtilis
  IC50: 2 µM

## CCN(CC)CCNc1nc(NC2CCCCCC2)nc(NC23CC4CC(CC(C4)C2)C3)n1
Bacillus subtilis
  IC50: 5.6 µM

## CCCCN(CCCC)CCCNc1nc(NCCc2ccc(OC)cc2)nc(NC23CC4CC(CC(C4)C2)C3)n1
[1]
  hemolysis at 100 µM: < 10%

## CN(C)CCNc1nc(NC2CCCCCC2)nc(NC23CC4CC(CC(C4)C2)C3)n1
Bacillus subtilis
  IC50: 7 µM

## CCCCN(CCCC)CCCNc1nc(NC2CC3CCC2C3)nc(NC23CC4CC(CC(C4)C2)C3)n1 (centres undefined)
Bacillus subtilis
  IC50: 7.6 µM
